Values after ≈ are worked out from the molar mass of the structure shown.
Tests used:
Pseudomonas aeruginosa [1] = test: Antibacterial activity against Pseudomonas aeruginosa ATCC 27853 assessed as inhibition of bacterial growth by CLSI protocol based microtiter broth dilution method; format: functional
Acinetobacter baumannii = test: Antibacterial activity against Acinetobacter baumannii BAA-16051 assessed as inhibition of bacterial growth by CLSI protocol based microtiter broth dilution method; format: functional
Klebsiella pneumoniae [2] = test: Antibacterial activity against Klebsiella pneumoniae ATCC 27736 assessed as inhibition of bacterial growth by CLSI protocol based microtiter broth dilution method; format: functional
[3] = (§1) Cytotoxicity against human THP-1 cells assessed as cell survival at 50 uM incubated for 24 hrs by MTT assay (reference value: 100.0 +/- 5.24 %); format: toxicity, cell-based; details: THP-1 cells, read-out: Activity
[4] = (§2) Cytotoxicity against human THP-1 cells assessed as cell survival at 100 uM incubated for 24 hrs by MTT assay (reference value: 100.0 +/- 5.24 %); format: toxicity, cell-based; details: THP-1 cells, read-out: Activity
THP-1 [5] = test: Cytotoxicity against human THP-1 cells assessed as cell death at 50 uM incubated for 24 hrs by LDH assay (reference value: 0.00 +/- 0.56 %); format: toxicity, cell-based; details: thp-1, 24 h
THP-1 [6] = test: Cytotoxicity against human THP-1 cells assessed as cell death at 100 uM incubated for 24 hrs by LDH assay (reference value: 0.00 +/- 0.56 %); format: toxicity, cell-based; details: thp-1, 24 h
Klebsiella pneumoniae [7] = test: Antimicrobial activity against Klebsiella pneumoniae ATCC 27736 infected in neutropenic thigh infection BALB/c mouse model assessed as log reduction in bacterial count in thigh at 50 mg/kg pre-infected with bacteria for 3 to 6 hrs followed by compound administration and measured 36 hrs post infection; format: functional; details: time 30-33 hrs
Bacillus subtilis [8] = test: Antibacterial activity against Bacillus subtilis incubated for 24 hrs by serial broth dilution method; format: functional
Escherichia coli [9] = test: Antibacterial activity against Escherichia coli incubated for 24 hrs by serial broth dilution method; format: functional
Staphylococcus aureus [10] = test: Antibacterial activity against Staphylococcus aureus incubated for 24 hrs by serial broth dilution method; format: functional
Pseudomonas aeruginosa [11] = test: Antibacterial activity against Pseudomonas aeruginosa incubated for 24 hrs by serial broth dilution method; format: functional
Bacillus subtilis [12] = test: Antibacterial activity against Bacillus subtilis incubated for 16 hrs by CLSI protocol based microtiter broth dilution method; format: functional
Staphylococcus aureus [13] = test: Antibacterial activity against Staphylococcus aureus incubated for 16 hrs by CLSI protocol based microtiter broth dilution method; format: functional
Escherichia coli [14] = test: Antibacterial activity against Escherichia coli incubated for 16 hrs by CLSI protocol based microtiter broth dilution method; format: functional
Pseudomonas aeruginosa [15] = test: Antibacterial activity against Pseudomonas aeruginosa incubated for 16 hrs by CLSI protocol based microtiter broth dilution method; format: functional
THP-1 [16] = test: as §1; format: toxicity, cell-based; details: thp-1, 24 h, 50 µM
THP-1 [17] = test: as §2; format: toxicity, cell-based; details: thp-1, 24 h, 100 µM

Row | Compound | MIC (Pseudomonas aeruginosa [1]) [µg/mL] | MIC (Acinetobacter baumannii) [µg/mL] | MIC (Klebsiella pneumoniae [2]) [µg/mL] | further results
1 | Cc1ccc(-n2c(-c3cc4cc(Cl)ccc4oc3=O)nc3ccccc32)cc1 | > 100 | > 100 | > 100 | 
2 | O=c1oc2ccc(Br)cc2cc1-c1nc2ccccc2[nH]1 | > 100 | > 100 | > 100 | 
3 | Cc1ccc(-n2c(-c3cc4ccccc4oc3=O)nc3ccccc32)cc1 | > 100 | > 100 | 6.25 (≈ 17.7 µM) | viability at 24 h, 50 µM [3]: 94.1%; viability at 24 h, 100 µM [4]: 27.3%; Activity (THP-1 [5]): 11.25%; Activity (THP-1 [6]): 16.88%; log(activity) (Klebsiella pneumoniae [7]): >2
4 | POLYMYXIN B [listing 1 of 2 here] | 1.25 | 3.12 | 1.25 | 
5 | O=c1oc2ccc(Br)cc2cc1-c1nc2ccccc2n1-c1ccc(Cl)cc1 | > 100 | > 100 | > 100 | 
6 | O=c1oc2ccccc2c(O)c1C(Sc1nc2ccccc2[nH]1)c1ccc(O)cc1 (configuration not stated) |  |  |  | MIC (Bacillus subtilis [8]): 250 µg/mL (≈ 600 µM); MIC (Escherichia coli [9]): 250 µg/mL (≈ 600 µM)
7 | O=C(CC(Sc1nc2ccccc2[nH]1)c1ccccc1)c1cc2ccccc2oc1=O (configuration not stated) |  |  |  | MIC (Bacillus subtilis [8]): 2300 µg/mL (≈ 5390 µM); MIC (Escherichia coli [9]): 2100 µg/mL (≈ 4920 µM); MIC (Staphylococcus aureus [10]): 2400 µg/mL (≈ 5630 µM); MIC (Pseudomonas aeruginosa [11]): 2200 µg/mL (≈ 5160 µM)
8 | C[C@@H](O)[C@H]1C(=O)N2C(C(=O)O)=C(S[C@@H]3CN[C@H](C(=O)N(C)C)C3)[C@H](C)[C@H]12 [MEROPENEM] | 6.25 (≈ 16.3 µM) | > 50 | 0.78 (≈ 2.03 µM) | 
9 | O=c1oc2ccccc2cc1/C(Cn1cnc2ccccc21)=N\Oc1ccc(Cl)cc1 |  |  |  | MIC (Bacillus subtilis [12]): 0.95 µg/mL (≈ 2.21 µM); MIC (Staphylococcus aureus [13]): 1.56 µg/mL (≈ 3.63 µM); MIC (Escherichia coli [14]): 3.12 µg/mL (≈ 7.26 µM); MIC (Pseudomonas aeruginosa [15]): 3.12 µg/mL (≈ 7.26 µM)
10 | POLYMYXIN B [listing 2 of 2 here] |  |  |  | Activity (THP-1 [16]): 72.77%; Activity (THP-1 [17]): 54.94%; Activity (THP-1 [5]): 19.64%; Activity (THP-1 [6]): 30.59%
11 | O=c1oc2ccc(Cl)cc2cc1-c1nc2ccccc2n1-c1ccc(Cl)cc1 | > 100 | > 100 | > 100 | 
12 | O=c1oc2ccc(Cl)cc2cc1-c1nc2ccccc2n1-c1ccccc1 | > 100 | > 100 | > 100 | 
13 | CCCCn1c(-c2cc3ccccc3oc2=O)nc2ccccc21 | > 100 | > 100 | 6.25 (≈ 19.6 µM) | viability at 24 h, 50 µM [3]: 89.7%; viability at 24 h, 100 µM [4]: 27.7%; Activity (THP-1 [5]): 8.01%; Activity (THP-1 [6]): 11.43%; log(activity) (Klebsiella pneumoniae [7]): >2
14 | O=c1oc2ccccc2cc1-c1nc2ccccc2n1-c1ccccc1 | > 100 | > 100 | > 100 | 
15 | O=c1oc2ccc(Cl)cc2cc1-c1nc2ccccc2n1-c1ccc(Br)cc1 | > 100 | > 100 | > 100 | 
16 | O=c1oc2ccc(Br)cc2cc1-c1nc2ccccc2n1-c1ccccc1 | > 100 | > 100 | > 100 | 
17 | O=c1oc2ccccc2cc1-c1nc2ccccc2n1-c1ccc(Br)cc1 | > 100 | > 100 | > 100 | 
18 | O=c1oc2ccc(Cl)cc2cc1-c1nc2ccccc2[nH]1 | > 100 | > 100 | > 100 | 
19 | O=c1oc2ccc(Br)cc2cc1-c1nc2ccccc2n1-c1ccc(Br)cc1 | > 100 | > 100 | > 100 | 
20 | CN[C@H](CC(C)C)C(=O)N[C@H]1C(=O)N[C@@H](CC(N)=O)C(=O)N[C@H]2C(=O)N[C@H]3C(=O)N[C@H](C(=O)N[C@H](C(=O)O)c4cc(O)cc(O)c4-c4cc3ccc4O)[C@H](O)c3ccc(c(Cl)c3)Oc3cc2cc(c3O[C@@H]2O[C@H](CO)[C@@H](O)[C@H](O)[C@H]2O[C@H]2C[C@](C)(N)[C@H](O)[C@H](C)O2)Oc2ccc(cc2Cl)[C@H]1O [VANCOMYCIN] | > 50 | 12.5 (≈ 8.63 µM) | > 50 | viability at 24 h, 50 µM [3]: 66.1%; viability at 24 h, 100 µM [4]: 65.9%; Activity (THP-1 [5]): 6.99%; Activity (THP-1 [6]): 13.88%
21 | Cc1ccc(-n2c(-c3cc4cc(Br)ccc4oc3=O)nc3ccccc32)cc1 | > 100 | > 100 | > 100 | 
22 | O=c1oc2ccccc2cc1-c1nc2ccccc2n1-c1ccc(Cl)cc1 | > 100 | > 100 | > 100 | 

From ChEMBL document CHEMBL5584260, “Identification of coumarin - benzimidazole hybrids as potential antibacterial agents: Synthesis, in vitro and in vivo biological assessment, and ADMET prediction” (Bioorg Med Chem Lett, 2024)
